These results are taken from patent US20150119698A1, “Compositions Comprising Near-Infrared Fluorescent Particles And Uses Thereof For Imaging Activated Immune Cells In the CNS” (priority 2012, published 2015).

Data set [1] relates to brains of mice 6 days post infection with P. berghei ANKA versus naïve mice. Particulars: mouse, in vivo. As to the method:
In an additional experiment, C57 black mice were infected with 80,000 parasites (P. berghei ANKA). […] Mice were scanned by IVIS™ optical imager. The measurements were performed for 5 hours. For each mouse, the intensity of brain ICG emission was compared to that of the foot. […] Five hours post injection mice were sacrificed and brains were scanned by TYPHOON™ imager.

Data set [2] relates to brain of mice following infection with Plasmodium berghei ANKA or naïve mice. Briefly: Probe distribution into the CNS in experimental cerebral malaria, images 4 hours post injection. The format is in vivo. The note with it: tail vein injection.

As to `CC1(C)C(/C=C/C=C/C=C/C=C2\N(CCCCS(=O)(=O)O)c3ccc4ccccc4c3C2(C)C)=[N+](CCCCS(=O)(=O)[O-])c2ccc3ccccc3c21` [free ICG, Indocyanine green], the “brain emission, infected versus naïve mice (statistical difference)” value in data set [1] was “not statistically different”. In data set [2] (mice infected with Plasmodium berghei ANKA), the “uptake into the brain of diseased mice” value was “but not free ICG, were preferentially uptaken into the brain”. Further, the “fluorescence in the brain of naïve mice” value in data set [2] (naïve mice) is “no significant fluorescence”.
